# Data as given in patent publication US20160143884A1, “USE OF TETRAHYDROINDAZOLYLBENZAMIDE AND TETRAHYDROINDOLYLBENZAMIDE DERIVATIVES FOR THE TREATMENT OF HUMAN IMMUNODEFICIENCY VIRUS (HIV) AND ACQUIRED IMMUNE DEFICIENCY SYNDROME (AIDS)” (Esanex, Inc., priority 2014, published 2016).
# pEC50, pIC50: −log10 of the molar value.
# Key:
# [1] = test system: HIV-1; experiment: HIV virus inhibition, p24 in supernatant by ELISA; type: cell-based; settings: for pEC50: Human immunodeficiency virus 1, HIV-1, p24 ELISA of supernatant
# Procedure: (§1) Several additional compounds were also tested for HIV virus inhibition, and the results are show in Table 5. P24 concentration in the supernatant was measured using a commercial ELISA assay. Toxicity was assessed by counting live cells (trypan blue exclusion)
# [2] = Toxicity by counting live cells (trypan blue exclusion); type: cell-based; settings: live cell count, read-out: Cytotoxicity TC50
# Procedure: as §1
# [3] = test system: HIV reactivation; settings: Anderson et al., PNAS 2014; cited from earlier work
# [4] = test system: integration; settings: Vozzolo et al., J. Biol. Chem. 2010; cited from earlier work
# [5] = test system: Hepatitis B Virus (HBV); experiment: Anti-HBV assay, real-time qPCR of extracellular HBV DNA in HepG2 2.2.15; type: cell-based
# Procedure: The anti-HBV assay employed real-time qPCR (TaqMan) to directly measure extracellular HBV DNA copy number. HepG2-2.2.15 cells were plated in 96-well microtiter plates. Only the interior wells were utilized to reduce “edge effects” observed during cell culture; the exterior wells were filled with complete medium to help minimize sample evaporation. After 16-24 hours the confluent monolayer of HepG2-2.2.15 cells was washed and the medium replaced with complete medium containing various concentrations of a test compound in triplicate. 3TC was used as positive control, while media alone was added to cells as negative control (virus control, VC). Three days later the culture medium was replaced with fresh medium containing the appropriately diluted drug. Six days following the initial administration of the test compound, the cell culture supernatant collected, treated with pronase and then used in a real-time quantitative TaqMan qPCR assay. The PCR-amplified HBV DNA was detected in real-time by monitoring increases in fluorescence signals that result from the exonucleolytic degradation of a quenched fluorescent probe molecule that hybridizes to the amplified HBV DNA. For each PCR amplification, a standard curve was simultaneously generated using dilutions of purified HBV DNA. Antiviral activity was calculated from the reduction in HBV DNA levels (IC50). CellTiter 96® AQueous One Solution Cell Proliferation Assay kit (Promega) was employed to measure cell viability which was used to calculate cytotoxicity (TC50). The therapeutic index (TI) was calculated as TC50/IC50.
# [6] = Cell viability (CellTiter 96 AQueous One) in HepG2 2.2.15; type: cell-based; settings: human, HepG2-2.2.15 cells, read-out: Cytotoxicity TC50
# Procedure: The anti-HBV assay employed real-time qPCR (TaqMan) to directly measure extracellular HBV DNA copy number. HepG2-2.2.15 cells were plated in 96-well microtiter plates. Only the interior wells were utilized to reduce “edge effects” observed during cell culture; the exterior wells were filled with complete medium to help minimize sample evaporation. After 16-24 hours the confluent monolayer of HepG2-2.2.15 cells was washed and the medium replaced with complete medium containing various concentrations of a test compound in triplicate. 3TC was used as positive control, while media alone was added to cells as negative control (virus control, VC). Three days later the culture medium was replaced with fresh medium containing the appropriately diluted drug. Six days following the initial administration of the test compound, the cell culture supernatant collected, treated with pronase and then used in a real-time quantitative TaqMan qPCR assay. The PCR-amplified HBV DNA was detected in real-time by monitoring increases in fluorescence signals that result from the exonucleolytic degradation of a quenched fluorescent probe molecule that hybridizes to the amplified HBV DNA. […] Antiviral activity was calculated from the reduction in HBV DNA levels (IC50). […] The therapeutic index (TI) was calculated as TC50/IC50.
Compound,Selectivity Index TI (TC50/EC50) [1],pEC50 [1],CC50 [2],other results
"Cc1nn(-c2ccc(C(N)=O)c(NC3CCC(O)CC3)c2)c2c1C(=O)CC(C)(C)C2 (stereo not drawn) [Compound 1, 2-((4-hydroxycyclohexyl)amino)-4-(3,6,6-trimethyl-4-oxo-4,5,6,7-tetrahydro-1H-indazol-1-yl)benzamide]",54,8.09,436 nM,
"Cc1nn(-c2ccc(C(N)=O)c(NCCCO)c2)c2c1C(=O)CC(C)(C)C2 [Compound 6, 2-((3-hydroxypropyl)amino)-4-(3,6,6-trimethyl-4-oxo-4,5,6,7-tetrahydro-1H-indazol-1-yl)benzamide]",,7.49,,
"Cc1nn(-c2ccc(C(N)=O)c(NCCO)c2)c2c1C(=O)CC(C)(C)C2 [Compound 2, 2-((2-hydroxyethyl)amino)-4-(3,6,6-trimethyl-4-oxo-4,5,6,7-tetrahydro-1H-indazol-1-yl)benzamide]",12,7.28,617 nM,
CCNC(=O)c1noc(-c2cc(C(C)C)c(O)cc2O)c1-c1ccc(CN2CCOCC2)cc1 [AUY922],,,,Suppression of HIV reactivation [3]: almost completely suppressed
C=CCNC1=C2C[C@@H](C)C[C@H](OC)[C@H](O)[C@@H](C)/C=C(\C)[C@H](OC(N)=O)[C@@H](OC)/C=C\C=C(/C)C(=O)NC(=CC1=O)C2=O [17-allylamino-17-demethoxy-geldanamycin],,,,Effect on integration [4]: no effect
"Cc1nn(-c2ccc(C(N)=O)c(NCCOCCOCCN)c2)c2c1C(=O)CC(C)(C)C2 [Compound 5, 2-((2-(2-(2-aminoethoxy)ethoxy)ethyl)amino)-4-(3,6,6-trimethyl-4-oxo-4,5,6,7-tetrahydro-1H-indazol-1-yl)benzamide]",,5.67,,
"Nc1ccn([C@@H]2CS[C@H](CO)O2)c(=O)n1 [Compound 3TC, 2′,3′-dideoxy-3′-thiacytidine, reference compound]",,,,"Selectivity Index TI (TC50/IC50) ([5]; HBV in HepG2 2.2.15): >14.0; pIC50 ([5]; Hepatitis B virus, 144 h, HBV in HepG2 2.2.15, six days, read-out: Antiviral Activity IC50 (reduction in HBV DNA levels)): 7.45; CC50 at 6 days [6]: > 500 nM"
"CCOCCCNc1cc(-n2nc(C)c3c2CC(C)(C)CC3=O)ccc1C(N)=O [Compound 8, 2-((3-ethoxypropyl)amino)-4-(3,6,6-trimethyl-4-oxo-4,5,6,7-tetrahydro-1H-indazol-1-yl)benzamide]",,7.38,,
"CCOCCNc1cc(-n2nc(C)c3c2CC(C)(C)CC3=O)ccc1C(N)=O [Compound 4, 2-((2-ethoxyethyl)amino)-4-(3,6,6-trimethyl-4-oxo-4,5,6,7-tetrahydro-1H-indazol-1-yl)benzamide]",24,7.05,2170 nM,
"COCCCNc1cc(-n2nc(C)c3c2CC(C)(C)CC3=O)ccc1C(N)=O [Compound 7, 2-((3-methoxypropyl)amino)-4-(3,6,6-trimethyl-4-oxo-4,5,6,7-tetrahydro-1H-indazol-1-yl)benzamide]",,7.09,,
"COCCNc1cc(-n2nc(C)c3c2CC(C)(C)CC3=O)ccc1C(N)=O [Compound 3, 2-((2-methoxyethyl)amino)-4-(3,6,6-trimethyl-4-oxo-4,5,6,7-tetrahydro-1H-indazol-1-yl)benzamide]",901,8.89,1160 nM,
